Test results from the NIST ThermoML archive (doi:10.1016/j.jct.2016.03.010).
Numbers after ± are expanded uncertainties.

Experiment: mn = molality of the nth substance listed, in mol/kg
Conditions: 101 kPa, Liquid; for viscosity: Capillary tube (Ostwald / Ubbelohde) method; for mass density: Vibrating tube method

Q: With `O=C(O)c1cccnc1` [3-carboxylpyridine] + O as the compound, how does the viscosity (298.15 K, m1 = 0.0202) read?
A: 0.8951 ± 0.022 mPa·s

Q: What about the viscosity (298.15 K, m1 = 0.0365) of the same compound?
A: 0.8988 ± 0.022 mPa·s

Q: And the viscosity (298.15 K, m1 = 0.0529)?
A: 0.9015 ± 0.022 mPa·s

Q: What about the viscosity (298.15 K, m1 = 0.0695) of the same compound?
A: 0.905 ± 0.022 mPa·s

Q: What about the viscosity (298.15 K, m1 = 0.0863) of the same compound?
A: 0.9088 ± 0.022 mPa·s

Q: What about the viscosity (298.15 K, m1 = 0.1032) of the same compound?
A: 0.9119 ± 0.022 mPa·s

Q: What about the mass density (298.15 K, m1 = 0.0202) of the same compound?
A: 997.92 ± 1.1 kg/m3

Q: And the mass density (298.15 K, m1 = 0.0365)?
A: 998.6 ± 1.2 kg/m3

Q: What about the mass density (298.15 K, m1 = 0.0529) of the same compound?
A: 999.27 ± 1.2 kg/m3

Q: And the mass density (298.15 K, m1 = 0.0695)?
A: 999.95 ± 1.2 kg/m3

Q: And the mass density (298.15 K, m1 = 0.0863)?
A: 1000.62 ± 1.2 kg/m3

Q: What about the mass density (298.15 K, m1 = 0.1032) of the same compound?
A: 1001.3 ± 1.2 kg/m3

Q: And the viscosity (308.15 K, m1 = 0.0202)?
A: 0.7224 ± 0.021 mPa·s

Q: What about the viscosity (308.15 K, m1 = 0.0365) of the same compound?
A: 0.725 ± 0.021 mPa·s

Q: What about the viscosity (308.15 K, m1 = 0.0529) of the same compound?
A: 0.7275 ± 0.021 mPa·s

Q: What about the viscosity (308.15 K, m1 = 0.0695) of the same compound?
A: 0.7308 ± 0.021 mPa·s

Q: And the viscosity (308.15 K, m1 = 0.0863)?
A: 0.734 ± 0.021 mPa·s

Q: And the viscosity (308.15 K, m1 = 0.1032)?
A: 0.7368 ± 0.022 mPa·s

Q: What about the mass density (308.15 K, m1 = 0.0202) of the same compound?
A: 994.89 ± 1.1 kg/m3

Q: And the mass density (308.15 K, m1 = 0.0365)?
A: 995.55 ± 1.1 kg/m3

Q: What about the mass density (308.15 K, m1 = 0.0529) of the same compound?
A: 996.21 ± 1.1 kg/m3

Q: And the mass density (308.15 K, m1 = 0.0695)?
A: 996.87 ± 1.2 kg/m3

Q: And the mass density (308.15 K, m1 = 0.0863)?
A: 997.52 ± 1.2 kg/m3

Q: And the mass density (308.15 K, m1 = 0.1032)?
A: 998.17 ± 1.2 kg/m3

Q: What about the viscosity (318.15 K, m1 = 0.0202) of the same compound?
A: 0.5972 ± 0.021 mPa·s

Q: And the viscosity (318.15 K, m1 = 0.0365)?
A: 0.5992 ± 0.021 mPa·s

Q: And the viscosity (318.15 K, m1 = 0.0529)?
A: 0.601 ± 0.021 mPa·s

Q: What about the viscosity (318.15 K, m1 = 0.0695) of the same compound?
A: 0.6051 ± 0.021 mPa·s

Q: What about the viscosity (318.15 K, m1 = 0.0863) of the same compound?
A: 0.6074 ± 0.021 mPa·s

Q: And the viscosity (318.15 K, m1 = 0.1032)?
A: 0.6094 ± 0.021 mPa·s

Q: And the mass density (318.15 K, m1 = 0.0202)?
A: 991.06 ± 1.1 kg/m3

Q: And the mass density (318.15 K, m1 = 0.0365)?
A: 991.69 ± 1.1 kg/m3

Q: And the mass density (318.15 K, m1 = 0.0529)?
A: 992.33 ± 1.1 kg/m3

Q: What about the mass density (318.15 K, m1 = 0.0695) of the same compound?
A: 992.96 ± 1.1 kg/m3

Q: And the mass density (318.15 K, m1 = 0.0863)?
A: 993.59 ± 1.1 kg/m3

Q: And the mass density (318.15 K, m1 = 0.1032)?
A: 994.23 ± 1.2 kg/m3
